Holding throughout (assay type): cell-based
What all share (settings): 16 h treatment, EGFR degradation by HTRF
(Time-resolved FRET reads energy transfer from a long-lived donor to a nearby acceptor.)

The target of assay [1] is T1, EGFR LTC (Homo sapiens, UniProt P00533, C797S/L858R/T790M).
T1 construct: expressed in transfected cells; host or cells: BaF3
Put plainly: Cell Degradation 3: EGFR degradation in BaF3 cells (LTC), HTRF assay. The essentials:
(§1)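 BaF3 cells expressing EGFR (LTC triple mutant C797S/L858R/T790M or DTC) exposed to compounds for 16 h, 8 doses from 4-fold dilution, 0.2% DMSO. Residual EGFR quantified by HTRF in lysates (triple mutant lysate diluted 1:1); DC50 from four-parameter logistic fit.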

The target in assay [2] is T2, EGFR (Homo sapiens, UniProt P00533, DEL746-750).
T2 construct: endogenous in cells; host or cells: HCC827
T2 sequence (P00533 with tags, fused parts or gaps DEL746-750): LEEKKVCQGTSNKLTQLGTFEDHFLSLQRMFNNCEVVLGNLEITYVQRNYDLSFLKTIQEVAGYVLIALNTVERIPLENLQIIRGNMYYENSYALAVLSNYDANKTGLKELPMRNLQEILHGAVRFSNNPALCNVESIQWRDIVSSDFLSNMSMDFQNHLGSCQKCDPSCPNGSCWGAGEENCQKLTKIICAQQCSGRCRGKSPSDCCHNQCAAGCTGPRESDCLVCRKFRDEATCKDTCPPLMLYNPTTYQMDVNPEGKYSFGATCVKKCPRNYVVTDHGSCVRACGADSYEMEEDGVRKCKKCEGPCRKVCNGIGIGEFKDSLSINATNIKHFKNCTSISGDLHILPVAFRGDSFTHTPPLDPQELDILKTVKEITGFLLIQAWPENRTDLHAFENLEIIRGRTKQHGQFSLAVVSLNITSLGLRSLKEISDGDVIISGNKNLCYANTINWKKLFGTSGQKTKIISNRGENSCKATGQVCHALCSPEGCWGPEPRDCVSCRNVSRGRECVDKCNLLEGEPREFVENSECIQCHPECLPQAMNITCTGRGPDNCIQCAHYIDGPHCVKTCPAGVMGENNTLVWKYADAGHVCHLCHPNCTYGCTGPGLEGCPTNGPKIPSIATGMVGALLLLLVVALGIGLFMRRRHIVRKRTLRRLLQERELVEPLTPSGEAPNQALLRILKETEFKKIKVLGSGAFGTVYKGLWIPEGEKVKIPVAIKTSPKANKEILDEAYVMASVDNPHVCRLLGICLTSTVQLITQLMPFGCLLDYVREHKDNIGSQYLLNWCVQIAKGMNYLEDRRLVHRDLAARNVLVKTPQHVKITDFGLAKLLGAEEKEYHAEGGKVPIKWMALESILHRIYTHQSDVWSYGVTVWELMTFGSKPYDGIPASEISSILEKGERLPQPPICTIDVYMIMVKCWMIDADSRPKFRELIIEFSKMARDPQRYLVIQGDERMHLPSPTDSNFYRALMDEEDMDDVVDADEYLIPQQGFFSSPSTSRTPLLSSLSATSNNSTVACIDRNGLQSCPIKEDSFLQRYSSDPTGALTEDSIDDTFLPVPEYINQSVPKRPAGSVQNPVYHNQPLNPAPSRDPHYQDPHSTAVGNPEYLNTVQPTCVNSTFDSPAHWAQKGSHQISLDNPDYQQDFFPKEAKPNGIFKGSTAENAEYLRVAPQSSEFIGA
T2 sequence (Q96SW2 whole entry partner): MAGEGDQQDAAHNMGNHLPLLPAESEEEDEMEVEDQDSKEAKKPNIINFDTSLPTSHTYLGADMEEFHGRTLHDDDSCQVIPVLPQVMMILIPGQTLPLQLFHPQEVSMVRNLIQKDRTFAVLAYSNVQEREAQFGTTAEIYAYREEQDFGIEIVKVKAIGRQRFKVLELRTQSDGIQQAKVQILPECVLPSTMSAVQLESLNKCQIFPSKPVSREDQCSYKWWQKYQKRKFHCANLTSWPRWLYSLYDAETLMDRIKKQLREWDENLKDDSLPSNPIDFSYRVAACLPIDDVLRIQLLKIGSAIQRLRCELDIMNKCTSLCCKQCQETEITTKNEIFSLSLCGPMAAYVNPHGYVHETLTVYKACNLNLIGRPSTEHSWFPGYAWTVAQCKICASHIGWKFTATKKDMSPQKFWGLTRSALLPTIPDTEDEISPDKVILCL
Put plainly: Cell Degradation 2: EGFR degradation in HCC827 cells, HTRF assay. The essentials:
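DC50 values derive from four-parameter fits of percent inhibition versus concentration. The HTRF read-out (665/620 nm ratio, 337 nm excitation) followed 16 h compound exposure of HCC827 cells, 1 h lysis and overnight room-temperature incubation with the HTRF antibodies.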

Assay [3] deals with EGFR DTC. In words: Cell Degradation 3: EGFR degradation in BaF3 cells (DTC), HTRF assay. The procedure, abridged: as §1
The target in assay [4] is T3, EGFR (Homo sapiens, UniProt P00533, L858R/T790M).
T3 construct: endogenous in cells; host or cells: H1975
T3 sequence (P00533 25-1210 T790M/L858R): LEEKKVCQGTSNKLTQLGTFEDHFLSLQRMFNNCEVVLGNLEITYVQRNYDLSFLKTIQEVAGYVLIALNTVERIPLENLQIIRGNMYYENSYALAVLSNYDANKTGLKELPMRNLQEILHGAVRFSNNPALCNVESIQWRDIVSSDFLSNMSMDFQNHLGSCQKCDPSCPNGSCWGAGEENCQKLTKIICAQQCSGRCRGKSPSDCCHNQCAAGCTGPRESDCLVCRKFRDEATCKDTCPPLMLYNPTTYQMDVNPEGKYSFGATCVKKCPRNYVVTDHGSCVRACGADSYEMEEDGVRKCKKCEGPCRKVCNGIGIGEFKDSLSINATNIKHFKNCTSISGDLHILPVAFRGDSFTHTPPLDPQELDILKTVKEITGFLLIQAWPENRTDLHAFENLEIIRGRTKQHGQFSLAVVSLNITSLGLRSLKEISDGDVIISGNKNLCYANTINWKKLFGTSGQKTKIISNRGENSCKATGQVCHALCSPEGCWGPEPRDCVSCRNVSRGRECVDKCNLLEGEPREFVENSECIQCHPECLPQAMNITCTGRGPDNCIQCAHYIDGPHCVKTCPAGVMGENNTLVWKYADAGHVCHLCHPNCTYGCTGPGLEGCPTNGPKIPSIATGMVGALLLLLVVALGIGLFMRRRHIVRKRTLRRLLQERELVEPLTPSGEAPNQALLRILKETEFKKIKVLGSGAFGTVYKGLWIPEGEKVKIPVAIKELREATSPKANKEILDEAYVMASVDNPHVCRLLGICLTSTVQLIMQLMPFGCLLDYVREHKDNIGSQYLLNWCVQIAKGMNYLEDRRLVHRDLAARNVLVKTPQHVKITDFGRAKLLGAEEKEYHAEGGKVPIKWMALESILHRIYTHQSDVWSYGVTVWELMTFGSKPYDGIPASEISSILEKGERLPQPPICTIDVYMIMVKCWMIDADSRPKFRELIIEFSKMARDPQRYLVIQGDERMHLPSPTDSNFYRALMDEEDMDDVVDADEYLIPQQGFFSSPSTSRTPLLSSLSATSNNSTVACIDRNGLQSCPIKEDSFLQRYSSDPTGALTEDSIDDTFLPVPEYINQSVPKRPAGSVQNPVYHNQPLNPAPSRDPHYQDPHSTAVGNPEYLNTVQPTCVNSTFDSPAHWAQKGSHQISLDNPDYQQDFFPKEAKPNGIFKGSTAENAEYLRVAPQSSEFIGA
In words: Cell Degradation 1: EGFR degradation in H1975 cells, HTRF assay. The procedure, abridged: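 EGFR levels were read by HTRF (337 nm excitation, 665 and 620 nm emission) in lysates of H1975 cells exposed to compound for 16 h, with antibodies incubated overnight at room temperature. Fitting percent inhibition versus concentration to a Hill equation gave DC50.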

T1 sequence (P00533 25-1210 T790M/C797S/L858R): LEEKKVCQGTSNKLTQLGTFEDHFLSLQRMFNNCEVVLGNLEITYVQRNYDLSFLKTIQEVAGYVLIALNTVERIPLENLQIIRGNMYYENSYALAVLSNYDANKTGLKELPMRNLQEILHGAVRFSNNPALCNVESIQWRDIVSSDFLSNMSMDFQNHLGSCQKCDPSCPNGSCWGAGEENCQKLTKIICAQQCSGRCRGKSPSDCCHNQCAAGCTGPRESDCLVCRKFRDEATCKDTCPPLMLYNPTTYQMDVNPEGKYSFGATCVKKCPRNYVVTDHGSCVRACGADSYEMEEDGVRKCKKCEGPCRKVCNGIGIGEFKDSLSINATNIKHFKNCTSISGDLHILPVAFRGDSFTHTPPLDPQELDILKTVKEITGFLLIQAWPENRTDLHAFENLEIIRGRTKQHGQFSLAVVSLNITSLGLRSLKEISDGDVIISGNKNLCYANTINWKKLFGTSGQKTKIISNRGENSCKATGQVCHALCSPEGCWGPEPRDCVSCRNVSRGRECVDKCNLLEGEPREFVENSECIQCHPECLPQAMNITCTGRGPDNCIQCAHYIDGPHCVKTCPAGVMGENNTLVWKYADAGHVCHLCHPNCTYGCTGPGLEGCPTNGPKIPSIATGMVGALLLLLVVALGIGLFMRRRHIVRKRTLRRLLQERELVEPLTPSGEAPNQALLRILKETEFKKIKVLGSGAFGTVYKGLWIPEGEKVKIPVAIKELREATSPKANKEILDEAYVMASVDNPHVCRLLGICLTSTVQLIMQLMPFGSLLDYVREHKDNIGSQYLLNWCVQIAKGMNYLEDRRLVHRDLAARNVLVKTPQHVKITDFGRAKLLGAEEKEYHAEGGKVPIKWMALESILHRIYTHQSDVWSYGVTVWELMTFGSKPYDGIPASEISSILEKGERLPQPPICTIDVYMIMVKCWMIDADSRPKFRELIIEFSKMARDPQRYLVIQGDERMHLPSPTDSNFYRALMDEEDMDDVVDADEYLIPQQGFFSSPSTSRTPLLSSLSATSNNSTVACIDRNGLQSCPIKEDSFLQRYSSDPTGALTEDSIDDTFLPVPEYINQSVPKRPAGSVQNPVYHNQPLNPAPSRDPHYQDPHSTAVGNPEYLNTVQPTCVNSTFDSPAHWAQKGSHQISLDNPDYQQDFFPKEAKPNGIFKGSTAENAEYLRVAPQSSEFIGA

With `COc1cc(N2CCC(N3CCN(CCC4CCN(c5ccc(C6CCC(=O)NC6=O)c(F)c5)CC4)CC3)CC2)ccc1Nc1ncc(Cl)c(Nc2cccc3c2N(S(C)(=O)=O)CC3)n1` (stereo not shown) [Example 36, 3-(4-(4-(2-(4-(1-(4-((5-chloro-4-((1-(methylsulfonyl)indolin-7-yl)amino)pyrimidin-2-yl)amino)-3-methoxyphenyl)piperidin-4-yl)piperazin-1-yl)ethyl)piperidin-1-yl)-2-fluorophenyl)piperidine-2,6-dione], the DC50 in assay [1] came out at 42.6 nM; in assay [2], 8.6 nM; in assay [3], 26.3 nM; in assay [4] it was 15.5 nM.
The like results for `COc1cc(N2CCC(N3CCN(C[C@@H]4CCN(c5ccc6c(c5)CN(C5CCC(=O)NC5=O)C6=O)C4)CC3)CC2)c(C)cc1Nc1ncc(Br)c(Nc2cccc3c2N(S(C)(=O)=O)CC3)n1` (stereo partly drawn) [Example 154, 3-(5-((S)-3-((4-(1-(4-((5-bromo-4-((1-(methylsulfonyl)indolin-7-yl)amino)pyrimidin-2-yl)amino)-5-methoxy-2-methylphenyl)piperidin-4-yl)piperazin-1-yl)methyl)pyrrolidin-1-yl)-1-oxoisoindolin-2-yl)piperidine-2,6-dione] were, in that order, 13 nM, 6 nM, 11 nM and 16 nM.
Turning to `CS(=O)(=O)N1CCc2cccc(Nc3nc(Nc4ccc(N5CCC(N6CCN(CCC7CCN(c8ccc(C9CCC(=O)NC9=O)cc8)CC7)CC6)CC5)c5c4OCC5)ncc3Cl)c21` (stereo not shown) [Example 54, 3-(4-(4-(2-(4-(1-(7-((5-chloro-4-((1-(methylsulfonyl)indolin-7-yl)amino)pyrimidin-2-yl)amino)-2,3-dihydrobenzofuran-4-yl)piperidin-4-yl)piperazin-1-yl)ethyl)piperidin-1-yl)phenyl)piperidine-2,6-dione], the DC50 was 443 nM in assay [1], 8.9 nM in assay [2], 120 nM in assay [3] and 8.9 nM in assay [4].
With `CS(=O)(=O)N1CCc2cccc(Nc3nc(Nc4ccc(N5CCC(N6CCN(CCCC7CN(c8ccc9c(c8)C(=O)N(C8CCC(=O)NC8=O)C9=O)C7)CC6)CC5)c(F)c4)nc4[nH]ccc34)c21` (stereo not shown) [Example 19, 2-(2,6-dioxopiperidin-3-yl)-5-(3-(3-(4-(1-(2-fluoro-4-((4-((1-(methylsulfonyl)indolin-7-yl)amino)-7H-pyrrolo[2,3-d]pyrimidin-2-yl)amino)phenyl)piperidin-4-yl)piperazin-1-yl)propyl)azetidin-1-yl)isoindoline-1,3-dione], the half-maximal degradation concentration (DC50) in assay [1] worked out at 24.2 nM; in assay [2] it was 10.8 nM; in assay [3], 16.7 nM; in assay [4], 6.03 nM.

One may read the DC50 as the concentration at which degradation of the target reaches its halfway point.

These data come from patent US12643903B2, “Bifunctional compounds for degradation of EGFR and related methods of use” (BeiGene, Ltd., priority 2020, dated 2026).
